Measured values from patent publication US11773071B2, “Benzothiazepine compounds and their use as bile acid modulators” (Albireo AB, priority 2019, dated 2023).

How the values were obtained:
Human LBAT = target: T1, Human LBAT (Homo sapiens, UniProt Q14973); experiment: LBAT (h/m) assay, human LBAT-overexpressing cells, 3H-taurocholic acid uptake; type: cell-based; conditions: 0.3 μM 3H-taurocholic acid and 7.5 μM cold taurocholic acid, 20 minutes, read-out: hLBAT IC50
T1 construct: expressed in transfected cells; Geneticin-selected
T1 sequence (Q14973 1-349): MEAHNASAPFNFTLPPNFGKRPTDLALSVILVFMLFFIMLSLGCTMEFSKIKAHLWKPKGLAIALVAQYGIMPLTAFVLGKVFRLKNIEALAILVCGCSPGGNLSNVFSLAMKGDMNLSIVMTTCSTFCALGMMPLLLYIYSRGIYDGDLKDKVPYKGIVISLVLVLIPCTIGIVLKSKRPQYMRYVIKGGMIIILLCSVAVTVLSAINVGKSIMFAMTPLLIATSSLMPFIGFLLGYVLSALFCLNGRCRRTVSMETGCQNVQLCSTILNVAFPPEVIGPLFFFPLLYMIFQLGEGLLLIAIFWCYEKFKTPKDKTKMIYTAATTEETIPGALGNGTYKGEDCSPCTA
Summary of the method: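 Human LBAT-overexpressing cells, washed in FBS-free MEM-alpha, incubated 20 min at 37 °C with 10-point 3-fold inhibitor dilutions (0.2% DMSO final), 0.3 μM 3H-taurocholic acid plus 7.5 μM cold taurocholic acid (mouse LBAT: 25 μM cold). Ice stop, chilled 1 mM taurocholate washes; uptake read by scintillation counting.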

Bioavailability studies = type: in vivo, mice; conditions: male, mouse, plasma, intravenous 1 mg/kg, oral 10 mg/kg
Description: Male mice (C57BL/6 or CD1) or Wistar rats of 8-9 weeks old were used. For each test compound, two groups of 3 animals each were used. One group was administered a single intravenous dose of 1 mg/kg (vehicle 100% DMSO) through the tail vein and the other group was administered a single oral dose of 10 mg/kg through gavage needle. The group that was administered an oral dose was fasted overnight. Blood samples were collected after 0.083, 0.25, 0.5, 1, 2, 4, 6, 8 and 24 hours following intravenous administration, and after 0.25, 0.5, 1, 2, 4, 6, 8 and 24 hours following oral administration. Blood samples were taken from saphenous vein. 0.2% EDTA was used as the anticoagulant. The samples were analyzed by a discovery grade bioanalytical method developed for the estimation of test compound in plasma, using an LC-MS/MS system.

Row | IC50 (Human LBAT) | bioavailability (Bioavailability studies; C57BL/6 mice) | bioavailability (Bioavailability studies; CD1 mice) | Structure (SMILES)
1 | 2170 nM | – | – | CCCCC1(CC)CN(c2ccccc2)c2cc(Br)c(OCCC(=O)O)cc2S(=O)(=O)C1 (racemic) [Example 1, 3-((7-Bromo-3-butyl-3-ethyl-1,1-dioxido-5-phenyl-2,3,4,5-tetrahydro-1,5-benzothiazepin-8-yl)oxy)propanoic acid]
2 | 155 nM | – | – | CCCCC1(CC)CN(c2ccccc2)c2cc(SC)c(OCC(C)(O)C(=O)O)cc2S(=O)(=O)C1 (single isomer, unassigned) [48, diastereomer 2]
3 | 410 nM | – | – | CCCCC1(CC)CN(c2ccccc2)c2cc(Cl)c(OCCC(=O)O)cc2S(=O)(=O)C1 (single isomer, unassigned) [Example 6, 3-((3-butyl-7-chloro-3-ethyl-1,1-dioxido-5-phenyl-2,3,4,5-tetrahydro-1,5-benzothiazepin-8-yl)oxy)propanoic acid]
4 | 379 nM | 13% | – | CCCCC1(CCCC)CN(c2ccccc2)c2cc(SC)c(OCC(O)C(=O)O)cc2S(=O)(=O)C1 (single isomer, unassigned) [Example 10, 3-((3,3-dibutyl-7-(methylthio)-1,1-dioxido-5-phenyl-2,3,4,5-tetrahydro-1,5-benzothiazepin-8-yl)oxy)-2-hydroxypropanoic acid]
5 | 613 nM | – | – | CCCCC1(CCCC)CN(c2ccccc2)c2cc(SC)c(OCC(O)C(=O)O)cc2S(=O)(=O)C1 (single isomer, unassigned) [Example 11, 3-((3,3-dibutyl-7-(methylthio)-1,1-dioxido-5-phenyl-2,3,4,5-tetrahydro-1,5-benzothiazepin-8-yl)oxy)-2-hydroxypropanoic acid]

The remaining lines, values behind:

Row | Structure (SMILES) | IC50 (Human LBAT) | bioavailability (Bioavailability studies; C57BL/6 mice) | bioavailability (Bioavailability studies; CD1 mice)
6 | CCCCC1(CC)CN(c2ccccc2)c2cc(Br)c(OCCC(=O)O)cc2S(=O)(=O)C1 (single isomer, unassigned) [Example 2, 3-((7-bromo-3-butyl-3-ethyl-1,1-dioxido-5-phenyl-2,3,4,5-tetrahydro-1,5-benzothiazepin-8-yl)oxy)propanoic acid] | 375 nM | 104% | –
7 | CCCCC1(CCCC)CN(c2ccccc2)c2cc(SC)c(OCCC(=O)O)cc2S(=O)(=O)C1 [Example 15, 3-((3,3-dibutyl-7-(methylthio)-1,1-dioxido-5-phenyl-2,3,4,5-tetrahydro-1,5-benzothiazepin-8-yl)oxy)propanoic acid] | 1930 nM | – | –
8 | CCCCC1(CC)CN(c2ccccc2)c2cc(SC)c(OCC(C)(F)C(=O)O)cc2S(=O)(=O)C1 (centres unmarked) [Example 34, 3-((3-butyl-3-ethyl-7-(methylthio)-1,1-dioxido-5-phenyl-2,3,4,5-tetrahydro-1,5-benzothiazepin-8-yl)oxy)-2-fluoro-2-methylpropanoic acid] | 28 nM | – | –
9 | CCCCC1(CC)CN(c2ccccc2)c2cc(SC)c(OCCC(=O)O)cc2S(=O)(=O)C1 (single isomer, unassigned) [Example 13, 3-((3-butyl-3-ethyl-7-(methylthio)-1,1-dioxido-5-phenyl-2,3,4,5-tetrahydro-1,5-benzothiazepin-8-yl)oxy)propanoic acid] | 489 nM | – | 102%
10 | CCCCC1(C)CN(c2ccccc2)c2cc(SC)c(OCCC(=O)O)cc2S(=O)(=O)C1 (single isomer, unassigned) [Example 24, 3-((3-butyl-3-methyl-7-(methylthio)-1,1-dioxido-5-phenyl-2,3,4,5-tetrahydro-1,5-benzothiazepin-8-yl)oxy)propanoic acid] | 596 nM | – | –
11 | CCCCC1(C)CN(c2ccccc2)c2cc(SC)c(OCC(O)C(=O)O)cc2S(=O)(=O)C1 (single isomer, unassigned) [32, diastereomer 1] | 2950 nM | – | –
12 | CCCCC1(CCCC)CN(c2ccccc2)c2cc(Br)c(OCCC(=O)O)cc2S(=O)(=O)C1 [Example 4, 3-((7-Bromo-3,3-dibutyl-1,1-dioxido-5-phenyl-2,3,4,5-tetrahydro-1,5-benzothiazepin-8-yl)oxy)propanoic acid] | 375 nM | – | –
13 | CCCCC1(C)CN(c2ccccc2)c2cc(N(C)C)c(OCCC(=O)O)cc2S(=O)(=O)C1 (single isomer, unassigned) [29, enantiomer 1] | 2590 nM | – | –
14 | CCCCC1(CC)CN(c2ccccc2)c2cc(Cl)c(OC(C)CC(=O)O)cc2S(=O)(=O)C1 (single isomer, unassigned) [30, diastereomer 1] | 283 nM | – | –
15 | CCCCC1(CC)CN(c2ccccc2)c2cc(SC)c(OCC(C)(F)C(=O)O)cc2S(=O)(=O)C1 (single isomer, unassigned) [35, diastereomer 1] | 48 nM | – | 8%
16 | CCCCC1(CCCC)CN(c2ccccc2)c2cc(SC)c(OCC(O)C(=O)O)cc2S(=O)(=O)C1 (racemic) [Example 9, 3-((3,3-Dibutyl-7-(methylthio)-1,1-dioxido-5-phenyl-2,3,4,5-tetrahydro-1,5-benzothiazepin-8-yl)oxy)-2-hydroxypropanoic acid] | 396 nM | – | –
